Read-outs that look alike come from different tables or passages of the source.
How the values were obtained:
[1] = tested on: blood glucose concentration; assay: Blood glucose lowering after single oral administration, fasting metabolically healthy rats; details: for ED50: Rattus norvegicus, po, 5 h; for ED50 (15%): dose which effects a lowering of the blood glucose concentration by 15% in 50% of the animals: Table II, rats p.o., α-methylenecarboxylic acid intermediates;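 for all read-outs here: young male Sprague-Dawley rats fasted 18 h, blood glucose sampled before dosing and at 3 and 5 h afterwards, compared with a solvent-treated control group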
[2] = Acute toxicity, guinea pig, peroral; details: in vivo, po; Table III; guinea pig p.o.; preliminary results
Description: Column C provides data relating to acute toxicity (LD50; guinea pig, peroral administration).

[3] = tested on: blood glucose concentration; assay: Blood glucose lowering after single oral administration, fasting metabolically healthy guinea pigs; assay type: in vivo, guinea pigs (young cross-bred male); details: Cavia porcellus
guinea pig = details: Table III; guinea pig p.o.; cited according to Proske et al. 1962; cited from earlier work
[4] = tested on: blood glucose concentration; details: guinea pig, in vivo, po; cited from earlier work
in vivo = details: mouse, po, Table I, mice p.o., 7 days observation, read-out: LD50 (acute toxicity)
Method: 2. Determination of the toxicity
Various doses of the substances (volume: 10 ml/kg) are administered orally by means of a stomach tube. The observation time is 7 days.

[5] = tested on: blood glucose concentration; details: rat, in vivo, po, 300 min
[6] = read-out: ED50 (15%): dose which effects a lowering of the blood glucose concentration by at least 15% in 50% of the animals
[7] = read-out: ED50 (25%): dose which effects a lowering of the blood glucose concentration by at least 25% in 50% of the animals
[8] = 5 h, read-out: ED50 (15%): dose which effects a lowering of the blood glucose concentration by at least 15% in 50% of the animals
[9] = 5 h, read-out: ED50 (25%): dose which effects a lowering of the blood glucose concentration by at least 25% in 50% of the animals
[10] = Table III B, guinea pig p.o., single dose, 5 hours, vs control group, read-out: ED50 (15%): dose which effects a lowering of the blood glucose concentration by at least 15% in 50% of the animals

Compound: O=C([O-])C1(CCCCCc2ccc(Cl)cc2)CO1.[Na+] (stereo not drawn)
- ED50 [1, 6]: 5 mg/kg
- ED50 [1, 7]: 16 mg/kg
- LD50 [2]: 300 to 400 mg/kg
- ED50 [3, 8]: 3 mg/kg
- ED50 [3, 9]: 8 mg/kg

Compound: O=C([O-])C1(CCCc2ccc(Cl)cc2)CO1.[Na+] (stereo not drawn)
- ED50 [1, 6]: 20 mg/kg
- ED50 [1, 7]: 41 mg/kg
- LD50 [2]: 500 to 600 mg/kg
- ED50 [3, 8]: 12 mg/kg
- ED50 [3, 9]: 26 mg/kg

Compound: O=C([O-])C1(CCCc2cccc(C(F)(F)F)c2)CO1.[Na+] (stereo not drawn)
- ED50 [1, 6]: 14 mg/kg
- ED50 [1, 7]: 23 mg/kg
- LD50 [2]: 300 to 400 mg/kg
- ED50 [3, 8]: 6 mg/kg
- ED50 [3, 9]: 11 mg/kg

Compound: O=C([O-])C1(CCCCCc2ccccc2)CO1.[Na+] (stereo not drawn)
- ED50 [1, 6]: 2 mg/kg
- ED50 [1, 7]: 12 mg/kg
- LD50 [2]: 500 to 600 mg/kg
- ED50 [3, 8]: 3 mg/kg
- ED50 [3, 9]: 7 mg/kg

Compound: 2-(3-Phenylpropyl)oxirane-2-carboxylic acid methyl ester [Example 13]
- ED50 (15%): dose which effects a lowering of the blood glucose concentration by 15% in 50% of the animals [1]: 252 mg/kg

Compound: 2-Benzyloxirane-2-carboxylic acid ethyl ester [Example 15]
- ED50 (15%): dose which effects a lowering of the blood glucose concentration by 15% in 50% of the animals [1]: 80 mg/kg

Compound: CCCCNC(=N)NC(=N)N [Serial No. 1, Buformin, reference compound]
- ED50 [1, 6]: > 100 mg/kg
- ED50 [1, 7]: 194 mg/kg
- LD50 (acute toxicity) (guinea pig): 58 mg/kg
- ED50 (25%): dose which effects a lowering of the blood glucose concentration by 25% in 50% of the animals [4]: 40 to 50 mg/kg

Compound: [H]/N=C(/N)N/C(=N/[H])NCCc1ccccc1 [Serial No. 2, Phenformin, reference compound]
- ED50 [1, 6]: > 150 mg/kg
- ED50 [1, 7]: > 343 mg/kg
- ED50 [4]: 20 to 25 mg/kg

Compound: CCOC(=O)C1(CCCc2ccc(Cl)cc2)CO1 (stereo not drawn) [Serial No. 3, 2-[3-(4-Chlorophenyl)propyl]oxirane-2-carboxylic acid ethyl ester]
- ED50 [1, 6]: 40 mg/kg
- ED50 [1, 7]: 54 mg/kg
- ED50 [3, 10]: 11 mg/kg
- LD50 (in vivo): 730 mg/kg

Compound: CCOC(=O)C1(CCCc2cccc(C(F)(F)F)c2)CO1 (stereo not drawn) [Serial No. 5, 2-[3-(3-Trifluoromethylphenyl)propyl]oxirane-2-carboxylic acid ethyl ester]
- ED50 [1, 6]: 6 mg/kg
- ED50 [1, 7]: 24 mg/kg
- ED50 [3, 10]: 3 mg/kg
- LD50 (in vivo): ~300 mg/kg

Compound: CCOC(=O)C1(CCCCCc2ccccc2)CO1 (stereo not drawn) [Serial No. 7, 2-(5-Phenylpentyl)oxirane-2-carboxylic acid ethyl ester]
- ED50 [5]: 21 mg/kg
- ED50 [1, 6]: 10 mg/kg
- ED50 [3, 10]: 11 mg/kg
- LD50 (in vivo): 230 mg/kg

Compound: CCOC(=O)C1(CCCCCc2ccc(Cl)cc2)CO1 (stereo not drawn) [Serial No. 9, 2-[5-(4-Chlorophenyl)pentyl]oxirane-2-carboxylic acid ethyl ester]
- ED50 [1, 6]: 3 mg/kg
- ED50 [1, 7]: 24 mg/kg
- ED50 [3, 10]: 5 mg/kg
- LD50 (in vivo): 275 mg/kg

Compound: CCOC(=O)C1(CCCCc2ccccc2)CO1 (stereo not drawn) [Serial No. 11, 2-(4-Phenylbutyl)oxirane-2-carboxylic acid ethyl ester]
- ED50 [1, 6]: 67 mg/kg

Compound: CCOC(=O)C1(CCCc2cccc(Cl)c2)CO1 (stereo not drawn) [Serial No. 12, 2-[3-(3-Chlorophenyl)propyl]oxirane-2-carboxylic acid ethyl ester]
- ED50 [1, 6]: 59 mg/kg

Compound: Sodium 2-(3-phenylpropyl)oxirane-2-carboxylate [Example 14]
- ED50 (15%): dose which effects a lowering of the blood glucose concentration by 15% in 50% of the animals [1]: > 253 mg/kg

Source: patent publication US4324796A, “Substituted oxiranecarboxylic acids, their use and medicaments containing them” (BYK Gulden Lomberg Chemische Fabrik Gesellschaft mit …, priority 1979, dated 1982)
